Values quoted from earlier work as cited in patent US20030008923A1, “Antineoplastic combinations” (Wyeth, priority 2001, published 2003).

What was measured:
[1] = tested on: histologically diverse tumor cells
[2] = tested on: human glioblastoma cell line; conditions: human glioblastoma cell line in vitro
mTOR = mTOR (Homo sapiens, UniProt P42345+P62942); conditions: growth factor stimulated cells, Western blot

Compound | growth of tumor cells in vitro ([1]; histologically diverse tumor cells) | cell cycle effect ([1]; in vitro) | activity against human tumor xenografts of diverse histological types (human tumor xenografts; nude mice) | growth of several human pancreatic tumors (human tumor xenografts; nude mice) | activity in orthotopic glioma model (human tumor xenografts; orthotopic glioma model in nude mice) | growth factor (platelet-derived)-induced stimulation [2] | phosphorylation of serine 389 of p70s6 kinase (mTOR)
CO[C@H]1C[C@@H]2CC[C@@H](C)[C@@](O)(O2)C(=O)C(=O)N2CCCC[C@H]2C(=O)O[C@H]([C@H](C)C[C@@H]2CC[C@@H](OC(=O)C(C)(CO)CO)[C@H](OC)C2)CC(=O)[C@H](C)/C=C(\C)[C@@H](O)[C@@H](OC)C(=O)[C@H](C)C[C@H](C)/C=C/C=C/C=C/1C [CCI-779, Rapamycin 42-ester with 3-hydroxy-2-(hydroxymethyl)-2-methylpropionic acid] | inhibit the growth | arrested cells in the G1 phase | has activity | inhibited | active | markedly suppressed | –
CO[C@H]1C[C@@H]2CC[C@@H](C)[C@@](O)(O2)C(=O)C(=O)N2CCCC[C@H]2C(=O)O[C@H]([C@H](C)C[C@@H]2CC[C@@H](O)[C@H](OC)C2)CC(=O)[C@H](C)/C=C(\C)[C@@H](O)[C@@H](OC)C(=O)[C@H](C)C[C@H](C)/C=C/C=C/C=C/1C [rapamycin] | – | – | – | – | – | – | completely blocks
